From patent US9266835B2, “Quinoline derivatives useful as CB-1 inverse agonists” (JANSSEN PHARMACEUTICA NV, priority 2014, dated 2016)

Assay: Chronic DIO Mouse, first study (food intake, body weight, insulin tolerance test, glucose tolerance test, plasma insulin, fed blood glucose)
Assay type: in vivo
Settings: DIO mice; for Insulin Tolerance Test, Blood Glucose AUC: day 19; for Intraperitoneal Glucose Tolerance Test Blood Glucose AUC: day 23
Protocol: Male 14-20-week old diet-induced obese mice were ordered from Taconic. Mice were started on a 60% fat diet (D12492, Research Diets, New Brunswick, N.J.) at 6 weeks of age. Mice were single-housed.
Test compounds were formulated in 10% PEG400 and 10% solutol. Test compounds were administered by oral gavage (5 ml kg^−1).
The test compound was formulated in 10% PEG400 and 10% solutol. DIO mice received vehicle, test compound (@ 1, 3 and 10 mg/kg) daily for 26 days. At the end of the experiment, the mice were euthanized and blood and tissues were collected.
Body weight and food weight (food intake) were monitored daily for days 1-5 and twice weekly thereafter. Fed blood glucose was measured weekly.
An insulin tolerance test (0.5 U/kg Humulin, ip) was performed on day 19 after a 4 hour food removal. Blood glucose was measured at 0, 15, 30, 60 and 120 minutes after insulin. […] Blood glucose was measured at 0, 30, 60 and 120 minutes after glucose challenge.
Blood glucose was measured from the tail vein with a Lifescan glucometer. Plasma insulin was measured with an ELISA or HTRF kit (Cisbio). Plasma parameters were measured with an Olympus clinical chemistry analyzer.
Compound #44 was tested according to the procedure as described above, with results as listed in Table BIO-4A through Table BIO4-G, below.

In the case of `O=c1cc(NC2CCN(S(=O)(=O)C(F)(F)F)CC2)c2cc(C(c3ccc(Cl)cc3)c3ccc(Cl)cc3)ccc2[nH]1` [Compound #44, 6-(bis(4-chlorophenyl)methyl)-4-(1-(trifluoromethylsulfonyl)piperidin-4-ylamino)quinolin-2(1H)-one], the “Mean Daily Food Intake (Std Err)” value (3 mg/kg daily, Day 5) is reported as 2.26 (0.20) Grams, the “Mean Body Weight (Std Err)” value (3 mg/kg daily, Day 8) is reported as 41.06 (0.76) Grams and the “Mean Daily Food Intake (Std Err)” value (3 mg/kg daily, Day 8) is reported as 2.30 (0.11) Grams. The “Mean Body Weight (Std Err)” value (3 mg/kg daily, Day 10) was 40.50 (0.74) Grams, the “Mean Daily Food Intake (Std Err)” value (3 mg/kg daily, Day 10) was 2.14 (0.15) Grams and the “Mean Body Weight (Std Err)” value (3 mg/kg daily, Day 11) was 40.15 (0.74) Grams. For the same molecule, the “Mean Daily Food Intake (Std Err)” value (3 mg/kg daily, Day 11) was 1.95 (0.11) Grams, the “Insulin Tolerance Test, Blood Glucose AUC” value (3 mg/kg daily) was 16879.5 mg·min/dL and the “Insulin Tolerance Test Mean Blood Glucose (Std Err)” value (3 mg/kg daily, day 19, 0 min after insulin) was 189.4 (7.3) mg/dL. For the same molecule, the “Insulin Tolerance Test Mean Blood Glucose (Std Err)” value (3 mg/kg daily, day 19, 15 min after insulin) was 178.8 (12.5) mg/dL, the “Insulin Tolerance Test Mean Blood Glucose (Std Err)” value (3 mg/kg daily, day 19, 30 min after insulin) was 121.4 (13.7) mg/dL and the “Insulin Tolerance Test Mean Blood Glucose (Std Err)” value (3 mg/kg daily, day 19, 60 min after insulin) was 119.7 (9.6) mg/dL. For the same molecule, the “Insulin Tolerance Test Mean Blood Glucose (Std Err)” value (3 mg/kg daily, day 19, 120 min after insulin) was 155.3 (9.5) mg/dL, the “Intraperitoneal Glucose Tolerance Test Blood Glucose AUC” value (3 mg/kg daily) was 29983.1 mg·min/dL and the “Intraperitoneal Glucose Tolerance Test Mean Blood Glucose (Std Err)” value (3 mg/kg daily, day 23, 0 min after glucose) was 161.8 (5.0) mg/dL. For the same molecule, the “Intraperitoneal Glucose Tolerance Test Mean Blood Glucose (Std Err)” value (3 mg/kg daily, day 23, 30 min after glucose) was 352.0 (22.6) mg/dL, the “Intraperitoneal Glucose Tolerance Test Mean Blood Glucose (Std Err)” value (3 mg/kg daily, day 23, 60 min after glucose) was 264.6 (25.6) mg/dL and the “Intraperitoneal Glucose Tolerance Test Mean Blood Glucose (Std Err)” value (3 mg/kg daily, day 23, 120 min after glucose) was 169.6 (9.2) mg/dL. The “Fed Blood Glucose” value (10 mg/kg daily oral, Day 0, mean (Std Err)) was 161.88 (6.71) mg/dL, the “Fed Blood Glucose” value (10 mg/kg daily oral, Day 18, mean (Std Err)) was 154.00 (5.53) mg/dL and the “Plasma Insulin” value (10 mg/kg daily oral, mean (Std Err)) was 2.14 (0.3) ng/mL. For the same molecule, the “Mean Body Weight (Std Err)” value (10 mg/kg daily, Day 1) was 43.26 (0.40) Grams, the “Mean Body Weight (Std Err)” value (10 mg/kg daily, Day 2) was 42.39 (0.36) Grams and the “Mean Daily Food Intake (Std Err)” value (10 mg/kg daily, Day 2) was 2.24 (0.10) Grams. For the same molecule, the “Mean Body Weight (Std Err)” value (10 mg/kg daily, Day 3) was 41.61 (0.41) Grams, the “Mean Daily Food Intake (Std Err)” value (10 mg/kg daily, Day 3) was 2.29 (0.16) Grams and the “Mean Body Weight (Std Err)” value (10 mg/kg daily, Day 4) was 40.76 (0.37) Grams. The “Mean Daily Food Intake (Std Err)” value (10 mg/kg daily, Day 4) was 1.70 (0.08) Grams, the “Mean Body Weight (Std Err)” value (10 mg/kg daily, Day 5) was 40.17 (0.39) Grams and the “Mean Daily Food Intake (Std Err)” value (10 mg/kg daily, Day 5) was 1.58 (0.11) Grams. For the same molecule, the “Mean Body Weight (Std Err)” value (10 mg/kg daily, Day 8) was 38.16 (0.48) Grams, the “Mean Daily Food Intake (Std Err)” value (10 mg/kg daily, Day 8) was 1.80 (0.12) Grams and the “Mean Body Weight (Std Err)” value (10 mg/kg daily, Day 10) was 37.47 (0.56) Grams. The “Mean Daily Food Intake (Std Err)” value (10 mg/kg daily, Day 10) was 2.02 (0.13) Grams, the “Mean Body Weight (Std Err)” value (10 mg/kg daily, Day 11) was 36.67 (0.55) Grams and the “Mean Daily Food Intake (Std Err)” value (10 mg/kg daily, Day 11) was 1.94 (0.11) Grams. The “Insulin Tolerance Test, Blood Glucose AUC” value (10 mg/kg daily) was 14258.3 mg·min/dL, the “Insulin Tolerance Test Mean Blood Glucose (Std Err)” value (10 mg/kg daily, day 19, 0 min after insulin) was 163.5 (5.9) mg/dL and the “Insulin Tolerance Test Mean Blood Glucose (Std Err)” value (10 mg/kg daily, day 19, 15 min after insulin) was 138.4 (20.0) mg/dL. For the same molecule, the “Insulin Tolerance Test Mean Blood Glucose (Std Err)” value (10 mg/kg daily, day 19, 30 min after insulin) was 96.2 (11.0) mg/dL, the “Insulin Tolerance Test Mean Blood Glucose (Std Err)” value (10 mg/kg daily, day 19, 60 min after insulin) was 99.7 (9.7) mg/dL and the “Insulin Tolerance Test Mean Blood Glucose (Std Err)” value (10 mg/kg daily, day 19, 120 min after insulin) was 143.5 (8.3) mg/dL. The “Intraperitoneal Glucose Tolerance Test Blood Glucose AUC” value (10 mg/kg daily) was 25680.0 mg·min/dL, the “Intraperitoneal Glucose Tolerance Test Mean Blood Glucose (Std Err)” value (10 mg/kg daily, day 23, 0 min after glucose) was 141.6 (6.5) mg/dL and the “Intraperitoneal Glucose Tolerance Test Mean Blood Glucose (Std Err)” value (10 mg/kg daily, day 23, 30 min after glucose) was 319.1 (26.9) mg/dL. For the same molecule, the “Intraperitoneal Glucose Tolerance Test Mean Blood Glucose (Std Err)” value (10 mg/kg daily, day 23, 60 min after glucose) was 225.1 (20.3) mg/dL and the “Intraperitoneal Glucose Tolerance Test Mean Blood Glucose (Std Err)” value (10 mg/kg daily, day 23, 120 min after glucose) was 128.4 (5.7) mg/dL.
